Common to all, as to assay type: in vivo
The subject of one experiment is Echinochloa oryzicola. Nature of the experiment: Herbicidal activity by paddy field soil treatment (Test Example 1). Also noted: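 index 0 to 10 in 10% steps of herbicidal effect with 10 meaning complete death and 0 below 10%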. The note with it: 1000 g of effective component per hectare, evaluated on day 21 after the treatment, criteria of Table 72. The gist of the method: (§1)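 Flooded-paddy pre-emergence assay at 1000 g a.i./ha, applied to the water surface one day after sowing; visual herbicidal score at day 21 in greenhouse.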

A further experiment deals with Monochoria vaginalis. Described as above. Further details: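 index 0 to 10 in 10% steps of herbicidal effect with 10 meaning complete death and 0 below 10%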. The note with it: 1000 g of effective component per hectare, evaluated on day 21 after the treatment, criteria of Table 72. A digest of the protocol: as §1
The next experiment relates to Scirpus juncoides Rocxb. The experiment is described as above. Particulars: applied on water surface, 1000 g of effective component per hectare, day 21 after the treatment. Also noted: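 index 0 to 10 in 10% steps of herbicidal effect with 10 meaning complete death and 0 below 10%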. A digest of the protocol: as §1
In experiment [1] the test system is A. retroflexus. Nature of the experiment: Herbicidal activity by field soil treatment (Test example 2). Further details: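 index 0 to 10 in 10% steps of herbicidal effect with 10 meaning complete death and 0 below 10%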. The note with it: 1000 g effective component per hectare, day 21 after the treatment. A digest of the protocol:
(§2)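 A wettable powder formulation, diluted with water, is applied to soil over just-sown seeds at an effective rate of 1000 g/ha. Effects are judged 21 days later after greenhouse growth.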

Experiment [2] deals with Echinochloa crus-galli. The experiment is described as above. Particulars: 1000 g effective component per hectare, day 21 after the treatment. Also noted: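 index 0 to 10 in 10% steps of herbicidal effect with 10 meaning complete death and 0 below 10%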. The gist of the method: as §2
The subject of experiment [3] is Indian millet. The description is as above. The note with it: 1000 g effective component per hectare, day 21 after the treatment. Also noted: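 index 0 to 10 in 10% steps of herbicidal effect with 10 meaning complete death and 0 below 10%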. The gist of the method: as §2
For the next experiment, the system named is foxtail. Described as above. The note with it: 1000 g effective component per hectare, day 21 after the treatment. A digest of the protocol: as §2
Experiment [4] deals with A. retroflexus. Nature of the experiment: Herbicidal activity by field foliage treatment (Test example 3). Further details: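 index 0 to 10 in 10% steps of herbicidal effect with 10 meaning complete death and 0 below 10%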. Particulars: 1000 g effective component per hectare, day 14 after the treatment. A digest of the protocol:
(§3)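 Test plants, grown from seed for two weeks in a greenhouse, are treated by foliar application of a wettable-powder formulation in water at a rate of 1000 g effective component per hectare. Damage is assessed 14 days later.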

The subject of experiment [5] is Indian millet. Described as above. Also noted: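 index 0 to 10 in 10% steps of herbicidal effect with 10 meaning complete death and 0 below 10%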. The note with it: 1000 g effective component per hectare, day 14 after the treatment. The gist of the method:
as §3

For experiment [6], the system named is Echinochloa crus-galli. The description is as above. Also noted: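 index 0 to 10 in 10% steps of herbicidal effect with 10 meaning complete death and 0 below 10%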. The note with it: 1000 g effective component per hectare, day 14 after the treatment. A digest of the protocol:
(§4)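 Potted field-soil plants grown 2 weeks in a greenhouse were sprayed over the whole foliage with diluted wettable powder at 1000 L/ha, delivering 1000 g active ingredient per hectare. Herbicidal effect scored by visual criteria 14 days after treatment.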

Another experiment relates to Setaria viridis. The description is as above. The note with it: 1000 g effective component per hectare, day 14 after the treatment. The gist of the method:
as §4

The text below walks through data of patent US8969554B2, “6-acyl-1,2,4-triazine-3,5-dione derivative and herbicides” (Kumiai Chemical Industry Co., Ltd., priority 2010, dated 2015).

Each structure is given as a SMILES string.
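For herbicidal effect index, Setaria viridis in this document: index 0 to 10 in 10% steps of herbicidal effect with 10 meaning complete death and 0 below 10%.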

For `Cn1nc(C(=O)C2=C(O)CCCC2=O)c(=O)n(-c2cc(F)ccc2F)c1=O` [I-79], the “Herbicidal effects index number, Echinochloa oryzicola” value in the experiment on Echinochloa oryzicola was determined as 10. For the same compound, the “Herbicidal effects index number, Monochoria vaginalis” value in the experiment on Monochoria vaginalis is 10. The “herbicidal effect index, S. juncoides Rocxb.” value in the experiment on Scirpus juncoides Rocxb. was 10. For the same compound, the “herbicidal effect index, Amaranthus retroflexus” value with A. retroflexus [1] and in the experiment on A. retroflexus [4] was 10 each time. Also, the “herbicidal effect index, Echinochloa crus-galli” value was 9 with Echinochloa crus-galli [2] and 10 with Echinochloa crus-galli [6]. Further, the “herbicidal effect index, Abutilon theophrasti” value in the experiment on Indian millet [3] and in the experiment with Indian millet [5] was 10 in each case. Moreover, the “herbicidal effect index, Setaria viridis” value with foxtail and with Setaria viridis was 10 in each case.
For the compound `Cn1nc(C(=O)C2=C(O)CCCC2=O)c(=O)n(-c2c(F)cccc2F)c1=O` [I-80], in the experiment on Echinochloa oryzicola, the “Herbicidal effects index number, Echinochloa oryzicola” value was found to be 10. In addition, the “Herbicidal effects index number, Monochoria vaginalis” value in the experiment with Monochoria vaginalis came to 10. Besides, the “herbicidal effect index, S. juncoides Rocxb.” value in the experiment on Scirpus juncoides Rocxb. worked out at 10. Also, the “herbicidal effect index, Amaranthus retroflexus” value in the experiment with A. retroflexus [1] and in the experiment on A. retroflexus [4] was 10 each time. For the same compound, the “herbicidal effect index, Echinochloa crus-galli” value in the experiment with Echinochloa crus-galli [2] is given as 9; with Echinochloa crus-galli [6], 10. The “herbicidal effect index, Abutilon theophrasti” value with Indian millet [3] and in the experiment with Indian millet [5] was 9 throughout. Besides, the “herbicidal effect index, Setaria viridis” value with foxtail came out at 9; with Setaria viridis, 7.
For the compound `Cn1nc(C(=O)C2=C(O)CCCC2=O)c(=O)n(-c2ccc(Cl)c(Cl)c2)c1=O` [I-81], the “Herbicidal effects index number, Echinochloa oryzicola” value with Echinochloa oryzicola worked out at 10. In addition, the “Herbicidal effects index number, Monochoria vaginalis” value in the experiment with Monochoria vaginalis is 10. Further, in the experiment on Scirpus juncoides Rocxb., the “herbicidal effect index, S. juncoides Rocxb.” value turned out to be 10. Further, the “herbicidal effect index, Amaranthus retroflexus” value in the experiment on A. retroflexus [1] and with A. retroflexus [4] was 10 throughout. The “herbicidal effect index, Echinochloa crus-galli” value is 9 in the experiment on Echinochloa crus-galli [2] and 10 in the experiment with Echinochloa crus-galli [6]. For the same compound, the “herbicidal effect index, Abutilon theophrasti” value in the experiment on Indian millet [3] and in the experiment on Indian millet [5] was 10 in each case. In addition, the “herbicidal effect index, Setaria viridis” value in the experiment on foxtail worked out at 7; in the experiment with Setaria viridis it was 10.
With `Cn1nc(C(=O)C2=C(O)CCCC2=O)c(=O)n(-c2cc(Cl)cc(Cl)c2)c1=O` [I-82], the “Herbicidal effects index number, Echinochloa oryzicola” value in the experiment on Echinochloa oryzicola is on record as 8. Further, in the experiment with Monochoria vaginalis, the “Herbicidal effects index number, Monochoria vaginalis” value came to 10. Further, in the experiment with Scirpus juncoides Rocxb., the “herbicidal effect index, S. juncoides Rocxb.” value amounted to 10. Besides, the “herbicidal effect index, Amaranthus retroflexus” value in the experiment with A. retroflexus [1] and in the experiment with A. retroflexus [4] was 10 throughout. Further, the “herbicidal effect index, Echinochloa crus-galli” value in the experiment with Echinochloa crus-galli [2] came out at 9; in the experiment on Echinochloa crus-galli [6], 10. Further, the “herbicidal effect index, Abutilon theophrasti” value with Indian millet [3] is given as 9; in the experiment with Indian millet [5], 10. Also, the “herbicidal effect index, Setaria viridis” value in the experiment on foxtail amounted to 9; in the experiment on Setaria viridis, 10.
Consider `Cn1nc(C(=O)C2=C(O)CCCC2=O)c(=O)n(-c2cccc(Cl)c2Cl)c1=O` [I-83], for which the “Herbicidal effects index number, Echinochloa oryzicola” value in the experiment with Echinochloa oryzicola is 10. Besides, in the experiment on Monochoria vaginalis, the “Herbicidal effects index number, Monochoria vaginalis” value is listed as 10. The “herbicidal effect index, S. juncoides Rocxb.” value in the experiment on Scirpus juncoides Rocxb. was found to be 10. In addition, the “herbicidal effect index, Amaranthus retroflexus” value with A. retroflexus [1] and in the experiment with A. retroflexus [4] was 10 throughout. The “herbicidal effect index, Echinochloa crus-galli” value is recorded as 9 with Echinochloa crus-galli [2] and 10 with Echinochloa crus-galli [6]. The “herbicidal effect index, Abutilon theophrasti” value in the experiment with Indian millet [3] and with Indian millet [5] was 10 each time. Also, the “herbicidal effect index, Setaria viridis” value stood at 9 with foxtail and 10 in the experiment on Setaria viridis.
Turning to `Cn1nc(C(=O)C2=C(O)CCCC2=O)c(=O)n(-c2ccc(Cl)cc2Cl)c1=O` [I-84], in the experiment on Echinochloa oryzicola, the “Herbicidal effects index number, Echinochloa oryzicola” value is reported as 10. Moreover, in the experiment with Monochoria vaginalis, the “Herbicidal effects index number, Monochoria vaginalis” value was found to be 10. In the experiment with Scirpus juncoides Rocxb., the “herbicidal effect index, S. juncoides Rocxb.” value worked out at 10. Further, the “herbicidal effect index, Amaranthus retroflexus” value in the experiment with A. retroflexus [1] and in the experiment on A. retroflexus [4] was 10 each time. The “herbicidal effect index, Echinochloa crus-galli” value with Echinochloa crus-galli [2] and in the experiment with Echinochloa crus-galli [6] was 9 in each case. Moreover, the “herbicidal effect index, Abutilon theophrasti” value in the experiment on Indian millet [3] and in the experiment on Indian millet [5] was 10 throughout. For the same compound, the “herbicidal effect index, Setaria viridis” value in the experiment with foxtail is on record as 9; in the experiment with Setaria viridis, 10.
For the compound `Cn1nc(C(=O)C2=C(O)CCCC2=O)c(=O)n(-c2cc(Cl)ccc2Cl)c1=O` [I-85], the “Herbicidal effects index number, Echinochloa oryzicola” value in the experiment with Echinochloa oryzicola amounted to 10. Further, the “Herbicidal effects index number, Monochoria vaginalis” value in the experiment on Monochoria vaginalis came out at 10. Further, in the experiment with Scirpus juncoides Rocxb., the “herbicidal effect index, S. juncoides Rocxb.” value came to 10. Further, the “herbicidal effect index, Amaranthus retroflexus” value in the experiment on A. retroflexus [1] and in the experiment on A. retroflexus [4] was 10 each time. Further, the “herbicidal effect index, Echinochloa crus-galli” value in the experiment on Echinochloa crus-galli [2] and with Echinochloa crus-galli [6] was 9 each time. Besides, the “herbicidal effect index, Abutilon theophrasti” value in the experiment on Indian millet [3] and with Indian millet [5] was 10 throughout. In addition, the “herbicidal effect index, Setaria viridis” value turned out to be 9 in the experiment on foxtail and 10 in the experiment on Setaria viridis.
`Cn1nc(C(=O)C2=C(O)CCCC2=O)c(=O)n(-c2c(Cl)cccc2Cl)c1=O` [I-86]: in the experiment on Echinochloa oryzicola, the “Herbicidal effects index number, Echinochloa oryzicola” value is 10. Besides, the “Herbicidal effects index number, Monochoria vaginalis” value in the experiment on Monochoria vaginalis came to 10. Also, in the experiment with Scirpus juncoides Rocxb., the “herbicidal effect index, S. juncoides Rocxb.” value is reported as 10. The “herbicidal effect index, Amaranthus retroflexus” value in the experiment on A. retroflexus [1] and in the experiment with A. retroflexus [4] was 10 each time. Further, the “herbicidal effect index, Echinochloa crus-galli” value in the experiment on Echinochloa crus-galli [2] worked out at 10; in the experiment on Echinochloa crus-galli [6], 9. Further, the “herbicidal effect index, Abutilon theophrasti” value in the experiment on Indian millet [3] is listed as 9; in the experiment on Indian millet [5], 10. Also, the “herbicidal effect index, Setaria viridis” value in the experiment on foxtail and in the experiment on Setaria viridis was 9 in each case.
Take `Cc1cccc(-n2c(=O)c(C(=O)C3=C(O)CCCC3=O)nn(C)c2=O)c1C` [I-89]: the “Herbicidal effects index number, Echinochloa oryzicola” value with Echinochloa oryzicola stood at 10. Further, the “Herbicidal effects index number, Monochoria vaginalis” value in the experiment on Monochoria vaginalis was found to be 10. Besides, the “herbicidal effect index, S. juncoides Rocxb.” value with Scirpus juncoides Rocxb. came to 10. The “herbicidal effect index, Amaranthus retroflexus” value with A. retroflexus [1] and in the experiment with A. retroflexus [4] was 10 throughout. Besides, the “herbicidal effect index, Echinochloa crus-galli” value in the experiment on Echinochloa crus-galli [2] and in the experiment on Echinochloa crus-galli [6] was 9 throughout. The “herbicidal effect index, Abutilon theophrasti” value with Indian millet [3] and in the experiment with Indian millet [5] was 10 each time. Moreover, the “herbicidal effect index, Setaria viridis” value in the experiment with foxtail is 8; in the experiment with Setaria viridis, 10.
Regarding `Cc1ccc(C)c(-n2c(=O)c(C(=O)C3=C(O)CCCC3=O)nn(C)c2=O)c1` [I-91], in the experiment on Echinochloa oryzicola, the “Herbicidal effects index number, Echinochloa oryzicola” value was determined as 10. Further, the “Herbicidal effects index number, Monochoria vaginalis” value in the experiment on Monochoria vaginalis amounted to 10. Besides, in the experiment with Scirpus juncoides Rocxb., the “herbicidal effect index, S. juncoides Rocxb.” value was determined as 10. Further, the “herbicidal effect index, Amaranthus retroflexus” value with A. retroflexus [1] and with A. retroflexus [4] was 10 in each case. The “herbicidal effect index, Echinochloa crus-galli” value in the experiment with Echinochloa crus-galli [2] and with Echinochloa crus-galli [6] was 9 in each case. Also, the “herbicidal effect index, Abutilon theophrasti” value in the experiment on Indian millet [3] and in the experiment with Indian millet [5] was 10 each time. For the same compound, the “herbicidal effect index, Setaria viridis” value in the experiment on foxtail and in the experiment on Setaria viridis was 10 throughout.
As for `Cc1cccc(C)c1-n1c(=O)c(C(=O)C2=C(O)CCCC2=O)nn(C)c1=O` [I-92], in the experiment with Echinochloa oryzicola, the “Herbicidal effects index number, Echinochloa oryzicola” value is 10. For the same compound, in the experiment on Monochoria vaginalis, the “Herbicidal effects index number, Monochoria vaginalis” value turned out to be 10. For the same compound, the “herbicidal effect index, S. juncoides Rocxb.” value in the experiment with Scirpus juncoides Rocxb. was determined as 10. Also, the “herbicidal effect index, Amaranthus retroflexus” value in the experiment on A. retroflexus [1] and in the experiment with A. retroflexus [4] was 10 in each case. Besides, the “herbicidal effect index, Echinochloa crus-galli” value was determined as 9 in the experiment with Echinochloa crus-galli [2] and 10 with Echinochloa crus-galli [6]. The “herbicidal effect index, Abutilon theophrasti” value in the experiment with Indian millet [3] and with Indian millet [5] was 10 each time. Moreover, the “herbicidal effect index, Setaria viridis” value was determined as 9 in the experiment on foxtail and 10 in the experiment on Setaria viridis.
With `COc1ccc(-n2c(=O)c(C(=O)C3=C(O)CCCC3=O)nn(C)c2=O)cc1OC` [I-93], in the experiment with Echinochloa oryzicola, the “Herbicidal effects index number, Echinochloa oryzicola” value was 8. The “Herbicidal effects index number, Monochoria vaginalis” value with Monochoria vaginalis is 10. Moreover, in the experiment on Scirpus juncoides Rocxb., the “herbicidal effect index, S. juncoides Rocxb.” value is on record as 10. Further, the “herbicidal effect index, Amaranthus retroflexus” value in the experiment on A. retroflexus [1] and in the experiment with A. retroflexus [4] was 10 each time. For the same compound, the entries for the “herbicidal effect index, Echinochloa crus-galli” value in the experiment with Echinochloa crus-galli [2] and in the experiment on Echinochloa crus-galli [6] were 7 and 9, respectively. The “herbicidal effect index, Abutilon theophrasti” value with Indian millet [3] and with Indian millet [5] was 10 throughout. For the same compound, the “herbicidal effect index, Setaria viridis” value in the experiment on foxtail is 6; in the experiment with Setaria viridis, 9.
